Experiments:
NE Transporter = NE Transporter (Homo sapiens, UniProt P23975); assay: Human NE transporter IC50/Ki; type: binding
DA Transporter = DA Transporter (Homo sapiens, UniProt Q01959); type: binding
5-HT Transporter [1] = target: 5-HT Transporter (Homo sapiens, UniProt P31645); type: binding
5-HT uptake = target: T1, 5-HT uptake (Rattus norvegicus, UniProt P31652); assay: Inhibition of reuptake of radiolabeled serotonin into rat brain synaptosomes; type: biochemical; conditions: functional monoamine uptake
T1 construct: synaptosomes prepared from various regions of rat brains; from tissue; host or cells: rat brain synaptosomes

[2] = Sanchez and Hyttel 1999; cited from earlier work
DA uptake = target: T2, DA uptake (Rattus norvegicus, UniProt P23977); assay: Inhibition of dopamine reuptake into rat brain synaptosomes; type: biochemical; conditions: functional monoamine uptake
T2 construct: norepinephrine (NE) and dopamine into similarly prepared synaptosomes; from tissue; host or cells: rat brain synaptosomes

NE uptake = target: T3, NE uptake (Rattus norvegicus, UniProt Q63380); assay: Inhibition of norepinephrine reuptake into rat brain synaptosomes; type: biochemical; conditions: functional monoamine uptake
T3 construct: norepinephrine (NE) and dopamine into similarly prepared synaptosomes; from tissue; host or cells: rat brain synaptosomes

5-HT Transporter [3] = target: 5-HT Transporter (Rattus norvegicus, UniProt P31652); assay: Rat 5-HT transporter IC50/Ki; type: binding
cytochrome P450 enzymes = conditions: P450 4A, 2C19, 2D6, 1A2, 2C9, 2E1; cited from earlier work
[4] = test system: receptors for various neurotransmitters, enzymes, other reuptake sites; conditions: acetylcholine, histamine, norepinephrine, dopamine receptors, monoamine oxidase; cited from earlier work

Sequence of NE Transporter (P23975 whole entry): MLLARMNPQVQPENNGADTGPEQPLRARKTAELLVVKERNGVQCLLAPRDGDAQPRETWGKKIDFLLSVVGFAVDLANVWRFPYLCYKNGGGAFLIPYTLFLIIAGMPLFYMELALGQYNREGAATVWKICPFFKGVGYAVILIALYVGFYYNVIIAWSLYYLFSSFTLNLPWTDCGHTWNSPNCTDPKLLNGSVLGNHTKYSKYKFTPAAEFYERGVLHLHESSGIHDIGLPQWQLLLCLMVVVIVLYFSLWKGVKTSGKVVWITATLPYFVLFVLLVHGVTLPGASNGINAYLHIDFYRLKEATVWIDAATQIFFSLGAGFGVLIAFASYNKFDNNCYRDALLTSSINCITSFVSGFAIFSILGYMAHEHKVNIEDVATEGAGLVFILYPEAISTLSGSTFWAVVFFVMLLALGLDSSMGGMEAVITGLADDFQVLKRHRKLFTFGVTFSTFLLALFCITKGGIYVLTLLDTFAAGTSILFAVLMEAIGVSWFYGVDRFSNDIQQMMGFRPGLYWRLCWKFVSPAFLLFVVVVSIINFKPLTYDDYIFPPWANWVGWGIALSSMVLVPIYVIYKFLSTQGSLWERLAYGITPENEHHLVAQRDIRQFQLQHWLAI
T2 sequence (P23977 whole entry): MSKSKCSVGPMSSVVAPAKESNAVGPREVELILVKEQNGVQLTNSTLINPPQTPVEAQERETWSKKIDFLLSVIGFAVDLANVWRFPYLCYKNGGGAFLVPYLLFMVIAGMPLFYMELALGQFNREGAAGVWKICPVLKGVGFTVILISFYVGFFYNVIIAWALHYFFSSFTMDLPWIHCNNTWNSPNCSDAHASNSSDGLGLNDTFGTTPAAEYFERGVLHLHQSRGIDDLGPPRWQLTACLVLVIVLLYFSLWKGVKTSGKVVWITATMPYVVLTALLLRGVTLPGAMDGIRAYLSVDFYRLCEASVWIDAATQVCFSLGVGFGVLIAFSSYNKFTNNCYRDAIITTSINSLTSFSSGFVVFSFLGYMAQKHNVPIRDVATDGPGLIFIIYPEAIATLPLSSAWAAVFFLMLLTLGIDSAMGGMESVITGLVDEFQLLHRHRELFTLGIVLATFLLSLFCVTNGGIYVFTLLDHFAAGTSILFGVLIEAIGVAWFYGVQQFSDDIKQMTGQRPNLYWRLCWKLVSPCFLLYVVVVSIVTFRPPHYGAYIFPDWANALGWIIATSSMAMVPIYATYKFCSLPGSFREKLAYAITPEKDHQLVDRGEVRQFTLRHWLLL
Sequence of 5-HT Transporter (Rattus norvegicus, UniProt P31652) (P31652 whole entry): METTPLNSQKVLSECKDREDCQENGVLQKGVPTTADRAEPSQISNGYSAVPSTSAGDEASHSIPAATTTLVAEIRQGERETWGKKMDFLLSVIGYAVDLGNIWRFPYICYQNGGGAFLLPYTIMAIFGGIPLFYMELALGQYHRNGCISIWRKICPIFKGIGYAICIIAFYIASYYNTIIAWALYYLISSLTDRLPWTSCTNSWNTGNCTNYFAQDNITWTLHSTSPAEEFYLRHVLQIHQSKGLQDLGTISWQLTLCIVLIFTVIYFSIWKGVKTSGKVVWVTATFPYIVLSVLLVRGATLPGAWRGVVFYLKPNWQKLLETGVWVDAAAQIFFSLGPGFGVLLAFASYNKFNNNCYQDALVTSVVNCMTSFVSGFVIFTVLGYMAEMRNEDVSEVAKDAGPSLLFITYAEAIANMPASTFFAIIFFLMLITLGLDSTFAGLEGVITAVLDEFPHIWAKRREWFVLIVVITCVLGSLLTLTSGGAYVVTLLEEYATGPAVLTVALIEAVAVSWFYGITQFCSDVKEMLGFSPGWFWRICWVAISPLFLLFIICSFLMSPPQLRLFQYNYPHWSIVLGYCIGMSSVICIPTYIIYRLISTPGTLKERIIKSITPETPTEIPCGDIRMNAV
T1 sequence (P31652 whole entry): as above
Sequence of DA Transporter (Q01959 whole entry): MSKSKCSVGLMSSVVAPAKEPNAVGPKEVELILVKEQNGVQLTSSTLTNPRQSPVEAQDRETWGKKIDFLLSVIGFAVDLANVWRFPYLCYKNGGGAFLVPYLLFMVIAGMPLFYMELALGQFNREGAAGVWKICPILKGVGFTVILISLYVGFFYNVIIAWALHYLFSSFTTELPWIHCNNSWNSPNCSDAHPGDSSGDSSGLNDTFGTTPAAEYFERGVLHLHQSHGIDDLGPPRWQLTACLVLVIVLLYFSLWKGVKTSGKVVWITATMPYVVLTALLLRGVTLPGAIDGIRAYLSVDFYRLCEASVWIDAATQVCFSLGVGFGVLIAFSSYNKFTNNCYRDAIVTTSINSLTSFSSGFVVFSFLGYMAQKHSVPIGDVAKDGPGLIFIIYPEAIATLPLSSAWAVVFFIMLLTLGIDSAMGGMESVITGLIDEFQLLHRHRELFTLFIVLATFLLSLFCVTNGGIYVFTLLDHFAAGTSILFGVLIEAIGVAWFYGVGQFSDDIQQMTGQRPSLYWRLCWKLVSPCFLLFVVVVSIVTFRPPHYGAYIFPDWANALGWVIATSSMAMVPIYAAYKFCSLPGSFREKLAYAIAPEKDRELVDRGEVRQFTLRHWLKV
Sequence of 5-HT Transporter (Homo sapiens, UniProt P31645) (P31645 whole entry): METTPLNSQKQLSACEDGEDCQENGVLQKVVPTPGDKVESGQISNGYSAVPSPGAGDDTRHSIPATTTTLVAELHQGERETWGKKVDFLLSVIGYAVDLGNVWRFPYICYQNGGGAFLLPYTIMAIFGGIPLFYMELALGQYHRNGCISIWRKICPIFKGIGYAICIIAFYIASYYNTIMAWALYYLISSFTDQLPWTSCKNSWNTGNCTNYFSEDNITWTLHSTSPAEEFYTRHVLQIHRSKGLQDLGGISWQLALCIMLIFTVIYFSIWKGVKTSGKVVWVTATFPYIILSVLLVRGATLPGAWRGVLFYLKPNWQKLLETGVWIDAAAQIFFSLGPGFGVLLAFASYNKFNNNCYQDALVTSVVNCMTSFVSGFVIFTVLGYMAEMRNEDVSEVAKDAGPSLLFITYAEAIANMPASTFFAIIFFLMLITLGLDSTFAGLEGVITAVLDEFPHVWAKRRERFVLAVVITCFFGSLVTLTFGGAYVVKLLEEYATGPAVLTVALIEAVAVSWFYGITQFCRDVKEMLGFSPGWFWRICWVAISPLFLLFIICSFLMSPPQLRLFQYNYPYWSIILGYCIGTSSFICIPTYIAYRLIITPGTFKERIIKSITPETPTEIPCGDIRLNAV
T3 sequence (Q63380 1-617): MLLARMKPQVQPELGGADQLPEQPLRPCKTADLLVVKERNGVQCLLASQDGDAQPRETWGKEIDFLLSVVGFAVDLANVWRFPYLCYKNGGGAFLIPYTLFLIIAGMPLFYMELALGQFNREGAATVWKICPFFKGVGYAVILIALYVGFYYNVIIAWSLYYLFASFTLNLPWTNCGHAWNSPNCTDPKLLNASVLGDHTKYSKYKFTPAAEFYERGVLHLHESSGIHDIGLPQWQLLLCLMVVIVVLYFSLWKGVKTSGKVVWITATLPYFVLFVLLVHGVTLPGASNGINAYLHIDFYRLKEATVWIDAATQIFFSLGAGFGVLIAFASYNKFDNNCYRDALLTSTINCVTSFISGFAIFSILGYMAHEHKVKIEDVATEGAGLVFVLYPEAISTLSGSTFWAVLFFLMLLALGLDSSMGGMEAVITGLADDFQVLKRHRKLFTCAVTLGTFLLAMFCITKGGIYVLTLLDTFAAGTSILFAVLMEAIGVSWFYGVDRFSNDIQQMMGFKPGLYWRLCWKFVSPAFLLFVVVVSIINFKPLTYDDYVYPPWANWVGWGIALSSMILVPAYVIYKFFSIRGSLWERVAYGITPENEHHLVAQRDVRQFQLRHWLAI

Compound	IC50 (NE Transporter)	Ki (NE Transporter)	IC50 (DA Transporter)	Ki (DA Transporter)	IC50 (5-HT Transporter [1])	Ki (5-HT Transporter [1])	IC50 (5-HT uptake)	half-lives compared to citalopram [2]	IC50 (DA uptake)	IC50 (NE uptake)	IC50 (5-HT Transporter [3])	Ki (5-HT Transporter [3])	inhibition of cytochrome P450 enzyme activity (not by more than) (cytochrome P450 enzymes)	affinity for neurotransmitter receptors, enzymes and other reuptake sites [4]
N#Cc1ccc2c(c1)COC2(CCCN)c1ccc(F)cc1 (single isomer, unassigned; (+)) [(+)-Didesmethylcitalopram]	24.2 µM	22.4 µM	54.7 µM	25 µM	0.219 µM	0.09 µM	0.18 µM	measurably longer	11 µM	3.3 µM	0.019 µM	0.0039 µM	–	–
CNCCCC1(c2ccc(F)cc2)OCc2cc(C#N)ccc21 (single isomer, unassigned; (+)) [(+)-Desmethylcitalopram]	10.3 µM	9.57 µM	27.7 µM	12.7 µM	–	–	0.0058 µM	–	7.6 µM	4.1 µM	0.0013 µM	0.00027 µM	–	–
CN(C)CCCC1(c2ccc(F)cc2)OCc2cc(C#N)ccc21 (racemic) [Racemic Citalopram, (±)-1-(3-dimethylaminopropyl)-1-(4-fluorophenyl)-1,3-dihydroisobenzofuran-5-carbonitrile, reference compound]	–	–	–	–	–	–	–	–	–	4.9 µM	–	–	mild degree	negligible affinity
N#Cc1ccc2c(c1)COC2(CCCN)c1ccc(F)cc1 (single isomer, unassigned; (-)) [(−)-Didesmethylcitalopram]	5.52 µM	5.12 µM	38.9 µM	17.8 µM	0.014 µM	0.0058 µM	0.13 µM	measurably longer	2.7 µM	1.3 µM	0.027 µM	0.0055 µM	–	–
(−)-Desmethylcitalopram	0.815 µM	0.756 µM	37.6 µM	17.1 µM	0.042 µM	0.017 µM	0.11 µM	measurably longer	9.4 µM	1.7 µM	0.011 µM	0.0023 µM	–	–
CNCCCC1(c2ccc(F)cc2)OCc2cc(C#N)ccc21 (racemic) [desmethylcitalopram, (±)-1-(3-methylaminopropyl)-1-(4-fluorophenyl)-1,3-dihydroisobenzofuran-5-carbonitrile]	–	–	–	–	–	–	–	–	–	–	–	–	mild degree	–

Source: US20040266864A1, “Methods for treating depression and other CNS disorders using enantiomerically enriched desmethyl-and didesmethyl-metabolites of citalopram” (Sepracor Inc., priority 2001, published 2004)
